Several values for one entry are separate records, joined by “and”; a condition that tells them apart may be missing. Identical values can stand only once.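 Tested at 5 concentrations; 48 h exposure; 96-well plates; endpoints linearly interpolated, else capped at highest concentration. Abbreviation: GI50, concentration required for 50% inhibition of growth. TGI denotes the concentration required for complete inhibition of growth.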
Tests used:
Test in all cases: NCI-60 cell line screen, 48 h
[1] = test system: A498 renal
[2] = test system: BT-549 breast
[3] = test system: HS 578T breast
[4] = test system: M14 melanoma
[5] = test system: MDA-MB-231 breast
[6] = test system: MDA-MB-435
[7] = test system: PC-3 prostate
[8] = test system: SR leukemia
[9] = test system: TK-10 renal
[10] = test system: DLD-1 colon
[11] = test system: HOP-18 NSCLC
[12] = test system: MCF7 breast
[13] = test system: 786-0 renal
[14] = test system: LXFL 529 NSCLC

CN(CCNC(=O)c1cn(C)c2c1ccc1cc(Cl)ccc12)CCNC(=O)c1cn(C)c2c1ccc1cc(Cl)ccc12
TGI [1]: 14.5 µM | TGI [2]: 21.9 µM | TGI [3]: 4.25 µM | TGI [4]: 3 µM | TGI [5]: 71.8 µM | TGI [6]: 3.47 µM | TGI [7]: 11.5 µM | TGI [8]: 38 µM | TGI [9]: 18.2 µM

O=NN(CCCl)C(=O)Nc1ccc(Cl)c(Cl)c1
TGI [1]: > 100 µM | TGI [10]: > 100 µM | TGI [11]: > 26.2 µM | TGI [12]: > 100 µM

OCCSCc1cc(Cl)cc(Cl)c1O
TGI [13]: > 100 µM | TGI [1]: > 100 µM | TGI [2]: > 100 µM | TGI [3]: > 100 µM | TGI [4]: > 100 µM | TGI [12]: > 100 µM | TGI [5]: > 100 µM | TGI [6]: > 100 µM | TGI [7]: > 100 µM | TGI [9]: > 100 µM

Nc1nccc2c1ncn2C1C=C(CO)C(O)C1O (stereo not given)
GI50 [10]: 104 µM | TGI [10]: > 1000 µM | GI50 [14]: > 1000 µM | TGI [14]: > 1000 µM | GI50 [4]: 7.18 µM | TGI [4]: > 1000 µM | GI50 [9]: 29.4 µM | TGI [9]: > 1000 µM

CC(C)(C)OC(=O)N1CCCC1C(=O)NCCNc1ccc(NCCNC(=O)C2CCCN2C(=O)OC(C)(C)C)c2c1C(=O)c1ccccc1C2=O (stereo not given)
TGI [13]: 28 µM | TGI [2]: 25.7 µM | TGI [3]: 69.5 µM | TGI [4]: 29.8 µM | TGI [12]: 34.2 µM | TGI [5]: 25.9 µM | TGI [6]: 39.8 µM | TGI [7]: 26.4 µM | TGI [8]: > 100 µM | TGI [9]: 49.1 µM

O=[P+](O)c1cccs1
TGI [1]: > 100 µM | TGI [10]: > 100 µM | TGI [11]: > 100 µM | TGI [14]: > 100 µM | TGI [4]: > 100 µM | TGI [9]: > 100 µM

O=C1CSc2sc(=S)sc2S1
TGI [1]: > 78.6 µM | TGI [10]: > 100 µM | TGI [11]: > 100 µM | TGI [12]: > 100 µM

CCOC(=O)c1c(SC)nc(-c2ccc(Cl)cc2)sc1=N
TGI [13]: > 100 µM | TGI [1]: > 100 µM | TGI [2]: > 100 µM | TGI [3]: > 100 µM | TGI [4]: > 100 µM | TGI [12]: 83.4 µM | TGI [5]: > 100 µM | TGI [6]: > 100 µM | TGI [7]: 61.9 µM | TGI [9]: > 100 µM

Cc1ccc(NC(=O)CC(=O)n2nc(-c3ccccc3)c(N=Nc3ccccc3C(=O)O)c2-c2ccccc2)cc1
TGI [10]: > 100 µM | TGI [14]: > 100 µM | TGI [8]: > 100 µM | TGI [9]: > 100 µM

O=C1NC2(NC(=O)C1=O)Nc1ccccc1S2
TGI [13]: 48.6 µM | TGI [1]: > 100 µM | TGI [10]: > 67.5 µM | TGI [11]: > 100 µM | TGI [14]: > 87.3 µM | TGI [4]: > 100 µM | TGI [8]: 61.9 µM | TGI [9]: > 100 µM

COc1cccc2c1C(=O)c1c(O)c3c(c(O)c1C2=O)C[C@@](O)(C(C)=O)C[C@@H]3OC1CC(N(C)C)C(O)C(C)O1 (stereo not given in full)
TGI [13]: 1.36 µM | GI50 [1]: 0.139 µM and 0.0466 µM | TGI [2]: 0.00562 µM | TGI [10]: 3.34 µM and 0.705 µM | TGI [11]: 0.585 µM and 2.17 µM | TGI [3]: 0.0011 µM | TGI [14]: 1 µM | GI50 [4]: 0.0437 µM | TGI [12]: 0.405 µM | TGI [5]: 0.005 µM | TGI [6]: 0.00234 µM | TGI [7]: 0.00144 µM | GI50 [8]: 0.00237 µM | GI50 [9]: 0.122 µM | TGI [9]: 1.34 µM

CC1C(O)[C@@]2(OC[C@@]34C(=O)CC5(O)[C@H](CCC6Cc7nc8c(nc7C[C@]65C)CC5CC[C@@H]6C7=C[C@H]9O[C@@]%10(O[C@@](C)(CO)C[C@@H]%10O)C(C)[C@@]9(O)[C@]7(C)[C@@H](O)CC6[C@]5(C)C8)C3=CC[C@H]4C2C)OC1(C)C (stereo not given in full)
TGI [1]: 0.00105 µM | TGI [10]: 0.652 µM | TGI [11]: 3.43 µM | TGI [12]: 0.625 µM

COC[C@@H]1Cc2cc(OC)c3c(c2[C@H](c2ccc(OC)c(OC)c2)[C@H]1COC)OCO3
TGI [1]: > 100 µM | TGI [10]: > 100 µM | TGI [11]: > 100 µM | TGI [14]: > 100 µM | TGI [4]: > 100 µM | TGI [8]: > 100 µM | TGI [9]: > 100 µM

Cc1cc(O)c2cc3c(O)c(O)ccc3cc2c1
TGI [13]: > 47.8 µM | TGI [1]: 16.1 µM | TGI [2]: > 44.3 µM | TGI [3]: 6.22 µM | TGI [4]: 20 µM | TGI [12]: > 87 µM | TGI [5]: 3.21 µM | TGI [6]: 22.8 µM | TGI [7]: 19.3 µM | TGI [8]: 3.25 µM | TGI [9]: 33.7 µM
